Consider six compounds from ChEMBL document CHEMBL1909046, “DrugMatrix in vitro pharmacology data”.

Data set [1] addresses T1, Estrogen receptor (Homo sapiens, UniProt P03372).
T1 sequence (P03372 whole entry): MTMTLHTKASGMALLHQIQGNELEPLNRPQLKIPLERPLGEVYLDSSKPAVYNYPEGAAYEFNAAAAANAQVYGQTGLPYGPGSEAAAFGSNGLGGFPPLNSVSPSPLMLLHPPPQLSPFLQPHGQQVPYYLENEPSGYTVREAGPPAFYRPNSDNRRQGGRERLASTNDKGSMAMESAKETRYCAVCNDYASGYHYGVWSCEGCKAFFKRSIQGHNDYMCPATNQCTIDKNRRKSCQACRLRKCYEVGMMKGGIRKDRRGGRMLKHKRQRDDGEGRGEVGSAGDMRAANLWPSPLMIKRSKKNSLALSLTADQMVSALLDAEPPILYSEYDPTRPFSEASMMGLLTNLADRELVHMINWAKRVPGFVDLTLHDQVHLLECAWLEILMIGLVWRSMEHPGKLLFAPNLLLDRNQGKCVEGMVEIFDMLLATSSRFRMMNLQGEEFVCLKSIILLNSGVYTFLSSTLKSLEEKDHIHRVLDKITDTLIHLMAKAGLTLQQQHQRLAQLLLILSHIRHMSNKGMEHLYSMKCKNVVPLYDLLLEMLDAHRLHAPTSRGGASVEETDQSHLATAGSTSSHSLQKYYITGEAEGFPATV
The note with it: sf9.

Data set [2] in a line: DRUGMATRIX: Phorbol Ester radioligand binding (ligand: [3H] PDBu). Format: cell membranes, Mus musculus, ICR, Brain, Membrane. To be noted: Not Active = under 50% inhibition at 10 µM.
For data set [3], the target named is Melanocortin receptor 3 (Homo sapiens, UniProt P41968). Format: cell membranes, Membrane. The note with it: hek293. Further: in other assays of this panel Not Active means under 50% inhibition at 10 µM.
Chain of Melanocortin receptor 3 (P41968 whole entry): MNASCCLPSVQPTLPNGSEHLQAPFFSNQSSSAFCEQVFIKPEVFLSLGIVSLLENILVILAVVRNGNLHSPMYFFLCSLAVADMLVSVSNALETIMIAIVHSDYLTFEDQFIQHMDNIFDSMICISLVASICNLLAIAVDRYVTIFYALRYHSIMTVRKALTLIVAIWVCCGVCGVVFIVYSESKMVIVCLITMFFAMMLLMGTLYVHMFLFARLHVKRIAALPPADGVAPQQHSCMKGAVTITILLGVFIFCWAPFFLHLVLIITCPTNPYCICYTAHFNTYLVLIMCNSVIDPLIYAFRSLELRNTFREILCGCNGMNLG
Data set [4] is described as follows: DRUGMATRIX: Calcium Channel Type L, Phenylalkylamine radioligand binding (ligand: [3H] (-)-Desmethoxyverapamil (D-888)). The note with it: Not Active = under 50% inhibition at 10 µM. Format: cell membranes, Rattus norvegicus, Wistar, Brain, Membrane.
Data set [5] concerns the target T2, Alpha-2A adrenergic receptor (Homo sapiens, UniProt P08913). Further: in other assays of this panel Not Active means under 50% inhibition at 10 µM.
T2 sequence (P08913 whole entry): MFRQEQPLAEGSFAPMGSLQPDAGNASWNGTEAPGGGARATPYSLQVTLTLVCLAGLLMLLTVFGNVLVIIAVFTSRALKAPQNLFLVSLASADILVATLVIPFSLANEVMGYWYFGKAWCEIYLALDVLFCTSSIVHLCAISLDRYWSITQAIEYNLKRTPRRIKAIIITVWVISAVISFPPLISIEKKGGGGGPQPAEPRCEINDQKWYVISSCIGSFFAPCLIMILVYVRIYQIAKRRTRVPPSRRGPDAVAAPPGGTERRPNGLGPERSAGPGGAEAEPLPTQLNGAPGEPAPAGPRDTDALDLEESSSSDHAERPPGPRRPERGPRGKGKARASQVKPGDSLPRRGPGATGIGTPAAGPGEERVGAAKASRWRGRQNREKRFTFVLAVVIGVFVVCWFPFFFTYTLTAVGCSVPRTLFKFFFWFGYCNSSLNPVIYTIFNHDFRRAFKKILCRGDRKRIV
Format: cell membranes, Sf9, Membrane.

Data set [6] deals with T3, C-X-C chemokine receptor type 1 (Homo sapiens, UniProt P25024).
T3 sequence (P25024 whole entry): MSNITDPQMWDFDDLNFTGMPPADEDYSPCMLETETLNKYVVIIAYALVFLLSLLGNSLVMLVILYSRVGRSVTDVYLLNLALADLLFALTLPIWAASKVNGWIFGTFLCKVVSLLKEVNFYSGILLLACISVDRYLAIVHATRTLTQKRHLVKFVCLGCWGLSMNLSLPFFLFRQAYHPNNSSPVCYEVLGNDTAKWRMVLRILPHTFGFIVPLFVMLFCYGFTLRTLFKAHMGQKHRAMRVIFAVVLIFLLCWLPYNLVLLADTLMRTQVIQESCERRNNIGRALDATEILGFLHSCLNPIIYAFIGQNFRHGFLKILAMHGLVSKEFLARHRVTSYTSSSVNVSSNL

For data set [7], the target named is Protein phosphatase 3 catalytic subunit alpha (Homo sapiens, UniProt Q08209). Details: species or system Escherichia coli.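 Further: inhibition of calcineurin (PP2B) enzyme activity, measured with DiFMUP as the substrate; in other assays of this panel Not Active means under 50% inhibition at 10 µM.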
The target of data set [8] is T4, Polyunsaturated fatty acid lipoxygenase ALOX15 (Oryctolagus cuniculus, UniProt P12530).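 Further: inhibition of 15-lipoxygenase enzyme activity measured with linoleic acid as the substrate; in other assays of this panel Not Active means under 50% inhibition at 10 µM.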
T4 sequence (P12530 whole entry): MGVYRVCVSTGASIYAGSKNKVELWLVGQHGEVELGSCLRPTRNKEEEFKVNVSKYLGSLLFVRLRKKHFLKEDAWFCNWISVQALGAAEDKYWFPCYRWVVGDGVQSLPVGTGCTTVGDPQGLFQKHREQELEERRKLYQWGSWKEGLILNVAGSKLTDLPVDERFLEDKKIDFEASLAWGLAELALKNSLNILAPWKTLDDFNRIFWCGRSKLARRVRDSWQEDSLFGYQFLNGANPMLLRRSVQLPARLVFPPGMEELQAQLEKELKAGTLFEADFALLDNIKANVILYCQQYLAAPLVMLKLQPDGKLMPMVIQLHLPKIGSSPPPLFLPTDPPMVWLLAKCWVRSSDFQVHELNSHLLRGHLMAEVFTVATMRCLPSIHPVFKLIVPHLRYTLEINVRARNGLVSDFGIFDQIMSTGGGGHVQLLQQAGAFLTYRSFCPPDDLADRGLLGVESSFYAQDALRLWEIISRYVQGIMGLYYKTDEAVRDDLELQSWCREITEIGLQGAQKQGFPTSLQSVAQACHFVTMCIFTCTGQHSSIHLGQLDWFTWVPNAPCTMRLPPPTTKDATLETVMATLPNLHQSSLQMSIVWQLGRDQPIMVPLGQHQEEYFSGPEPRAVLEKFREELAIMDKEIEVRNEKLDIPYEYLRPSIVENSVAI
Kind of data set: biochemical. It is filed as tissue-based, Reticulocytes. The note with it: reticulocytes.

For data set [9], the target named is C-C chemokine receptor type 5 (Homo sapiens, UniProt P51681). It is filed as cell membranes, Membrane. To be noted: hek293. Further: in other assays of this panel Not Active means under 50% inhibition at 10 µM.
Chain of C-C chemokine receptor type 5 (P51681 whole entry): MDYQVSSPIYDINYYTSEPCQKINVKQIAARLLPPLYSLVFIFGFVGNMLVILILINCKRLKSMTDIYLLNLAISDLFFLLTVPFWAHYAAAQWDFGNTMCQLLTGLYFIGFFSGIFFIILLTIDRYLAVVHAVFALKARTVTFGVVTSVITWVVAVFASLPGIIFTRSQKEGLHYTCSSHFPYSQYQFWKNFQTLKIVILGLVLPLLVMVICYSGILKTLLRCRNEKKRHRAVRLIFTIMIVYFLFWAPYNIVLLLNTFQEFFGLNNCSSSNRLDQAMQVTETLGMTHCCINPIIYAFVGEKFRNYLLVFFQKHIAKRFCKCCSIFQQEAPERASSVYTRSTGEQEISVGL
Data set [10] deals with Melanocortin receptor 5 (Homo sapiens, UniProt P33032). Format: cell membranes, HEK293, Membrane. To be noted: hek293.
Chain of Melanocortin receptor 5 (P33032 whole entry): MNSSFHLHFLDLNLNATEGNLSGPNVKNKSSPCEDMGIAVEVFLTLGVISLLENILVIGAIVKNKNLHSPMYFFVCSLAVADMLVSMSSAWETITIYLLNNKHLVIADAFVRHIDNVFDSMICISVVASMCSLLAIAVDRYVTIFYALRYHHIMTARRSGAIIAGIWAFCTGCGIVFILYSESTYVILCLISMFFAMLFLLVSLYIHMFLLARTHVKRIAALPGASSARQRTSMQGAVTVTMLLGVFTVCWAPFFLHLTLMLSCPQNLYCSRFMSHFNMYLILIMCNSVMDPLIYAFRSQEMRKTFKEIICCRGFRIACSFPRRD
Data set [11] in a line: DRUGMATRIX: Serotonin (5-Hydroxytryptamine) 5-HT3 radioligand binding (ligand: [3H] GR-65630). Format: cell membranes, Membrane. The note with it: hek293; Not Active = under 50% inhibition at 10 µM.
The target of data set [12] is 5-hydroxytryptamine receptor 6 (Homo sapiens, UniProt P50406). It is filed as cell membranes, HeLa, Membrane. Further: in other assays of this panel Not Active means under 50% inhibition at 10 µM.
Chain of 5-hydroxytryptamine receptor 6 (P50406 whole entry): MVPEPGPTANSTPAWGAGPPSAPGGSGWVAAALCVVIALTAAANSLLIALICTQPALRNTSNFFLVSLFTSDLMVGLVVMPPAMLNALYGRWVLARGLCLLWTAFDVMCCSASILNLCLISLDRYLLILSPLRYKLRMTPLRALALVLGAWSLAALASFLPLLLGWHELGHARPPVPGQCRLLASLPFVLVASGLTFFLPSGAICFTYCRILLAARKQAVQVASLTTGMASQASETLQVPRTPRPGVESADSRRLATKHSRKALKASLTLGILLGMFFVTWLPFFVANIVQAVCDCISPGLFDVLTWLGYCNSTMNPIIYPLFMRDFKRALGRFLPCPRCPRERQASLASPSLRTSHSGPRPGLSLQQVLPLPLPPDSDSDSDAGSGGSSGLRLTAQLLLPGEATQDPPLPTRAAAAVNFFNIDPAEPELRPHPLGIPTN
For data set [13], the target named is Tyrosine-protein kinase Lck (Homo sapiens, UniProt P06239). In words: DRUGMATRIX: Protein Tyrosine Kinase, LCK enzyme inhibition (substrate: Poly(Glu:Tyr)). Format: cell-based, Insect cells. The note with it: insect cells; Not Active = under 50% inhibition at 10 µM.
Chain of Tyrosine-protein kinase Lck (P06239 whole entry): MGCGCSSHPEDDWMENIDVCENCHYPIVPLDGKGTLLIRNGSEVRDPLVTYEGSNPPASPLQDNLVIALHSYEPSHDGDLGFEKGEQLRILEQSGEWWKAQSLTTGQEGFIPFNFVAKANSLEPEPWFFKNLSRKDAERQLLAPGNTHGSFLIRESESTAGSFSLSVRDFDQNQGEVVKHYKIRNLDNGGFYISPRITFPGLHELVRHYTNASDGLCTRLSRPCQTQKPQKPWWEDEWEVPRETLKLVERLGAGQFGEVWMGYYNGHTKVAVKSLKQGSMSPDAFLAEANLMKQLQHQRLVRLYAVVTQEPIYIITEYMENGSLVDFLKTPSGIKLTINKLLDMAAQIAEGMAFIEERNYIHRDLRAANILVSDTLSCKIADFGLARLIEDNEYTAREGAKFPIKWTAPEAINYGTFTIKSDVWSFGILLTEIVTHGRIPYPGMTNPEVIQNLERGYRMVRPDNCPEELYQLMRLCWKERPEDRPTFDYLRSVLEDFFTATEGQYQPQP
Data set [14] concerns the target Cytochrome P450 2C9 (Homo sapiens, UniProt P11712). To be noted: bti-tn-5b1-4. Further: in other assays of this panel Not Active means under 50% inhibition at 10 µM.

The structures appear in SMILES notation. Where a SMILES comes first, the peptide text is derived from it. Bridges are numbered along the chain shown (N, C = ends). [ ]: non-standard residue; d: D form. The star is where a group is joined. Ileψ(thiazoline)Cys = CC[C@H](C)[C@H](N)C1=N[C@H](C(=O)*)CS1; dOrn = NCCC[C@@H](N)C(=O)O

The term IC50 denotes the concentration that inhibits the measured activity by half. As usually defined, the Ki is a measure of affinity in units of concentration, obtained from inhibition or displacement.

Chain of Cytochrome P450 2C9 (P11712 whole entry): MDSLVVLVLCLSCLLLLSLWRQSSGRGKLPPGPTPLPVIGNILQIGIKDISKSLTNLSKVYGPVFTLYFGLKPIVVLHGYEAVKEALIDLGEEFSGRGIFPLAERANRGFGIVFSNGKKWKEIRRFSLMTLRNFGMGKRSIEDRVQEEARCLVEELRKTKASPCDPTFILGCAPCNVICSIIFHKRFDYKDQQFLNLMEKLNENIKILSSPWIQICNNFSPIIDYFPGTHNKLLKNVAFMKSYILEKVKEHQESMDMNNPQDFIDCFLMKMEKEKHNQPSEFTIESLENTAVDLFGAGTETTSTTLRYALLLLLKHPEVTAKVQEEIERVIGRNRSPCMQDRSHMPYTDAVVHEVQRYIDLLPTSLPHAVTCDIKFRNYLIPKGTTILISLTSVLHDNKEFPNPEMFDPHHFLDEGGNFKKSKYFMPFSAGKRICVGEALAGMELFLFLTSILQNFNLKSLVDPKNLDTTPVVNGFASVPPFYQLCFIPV

Consider `CC[C@H](C)[C@H](N)C1=N[C@H](C(=O)N[C@@H](CC(C)C)C(=O)N[C@H](CCC(=O)O)C(=O)N[C@H](C(=O)N[C@H]2CCCCNC(=O)[C@H](CC(N)=O)NC(=O)[C@@H](CC(=O)O)NC(=O)[C@H](Cc3cnc[nH]3)NC(=O)[C@@H](Cc3ccccc3)NC(=O)[C@H]([C@@H](C)CC)NC(=O)[C@@H](CCCN)NC2=O)[C@@H](C)CC)CS1` [BACITRACIN] ({Ileψ(thiazoline)Cys}-L[dE]IK[dOrn]I[dF]H[dD]N; lactam 4-C), for which the IC50 result in [1], in data set [2], in data set [3], in [4], in [5] (sf9) and in data set [6] was “Not Active” throughout. For the same compound, the IC50 entry in [7], in [8], in [9], in data set [10], in [11] and in data set [12] (hela) was “Not Active” throughout. Also, the Ki entry in data set [2], in data set [4] and in [11] was “Not Active” in each case.

In the case of `CCCCOC(=O)c1ccc(N)cc1` [BUTAMBEN], the IC50 result in data set [1], in data set [2], in [3], in data set [4], in [5] (sf9) and in data set [6] was “Not Active” in each case. Besides, the 50% inhibitory concentration (IC50) entry in [7], in [8], in data set [9], in data set [13], in data set [10] and in data set [11] was “Not Active” in each case. Further, the IC50 entry in data set [12] (hela) was “Not Active”. The inhibition constant (Ki) result in data set [2], in data set [4] and in data set [11] was “Not Active” throughout.

With `O=C1CCc2cc(OCCCCc3nnnn3C3CCCCC3)ccc2N1` [CILOSTAZOL], the IC50 entry in data set [1], in [2], in [3], in data set [4], in data set [5] (sf9) and in data set [6] was “Not Active” in each case. Also, the IC50 entry in [7], in [8], in [9], in [13], in data set [10] and in data set [11] was “Not Active” each time. Besides, in data set [12] (hela), the IC50 result is given as “Not Active”. The inhibition constant (Ki) result in data set [2], in [4] and in data set [11] was “Not Active” throughout.

With `O=C(O)c1cn(C2CC2)c2cc(N3CCNCC3)c(F)cc2c1=O` [CIPROFLOXACIN], the half-inhibitory concentration (IC50) result in data set [1], in [2], in [3], in data set [4], in [5] (sf9) and in data set [6] was “Not Active” each time. For the same compound, the IC50 entry in data set [7], in data set [8], in data set [9], in data set [13], in data set [10] and in data set [11] was “Not Active” throughout. For the same compound, the IC50 entry in data set [12] (hela) is recorded as “Not Active”. In addition, the Ki result in data set [2], in [4] and in data set [11] was “Not Active” throughout.

On to `CNCCC=C1c2ccccc2CCc2ccccc21` [NORTRIPTYLINE], for which the concentration for half-maximal inhibition (IC50) result is “Not Active” in data set [1]; “Not Active” in data set [2]; “Not Active” in data set [3]; 1.89 µM in data set [4] (read-out: IC50); “Not Active” in data set [6]; “Not Active” in [7]. The IC50 entry in data set [8], in [9], in [13], in data set [10], in data set [11] and in data set [14] was “Not Active” each time. The IC50 in data set [12] (read-out: IC50) worked out at 0.554 µM. Moreover, the Ki entry in data set [2] was “Not Active”; in data set [4] (read-out: Ki), 1.83 µM; in [11], “Not Active”; in data set [14] it was “Not Active”; in [12] (read-out: Ki) it was 0.257 µM.

Turning to `COc1ccc(CN(CCN(C)C)c2ccccn2)cc1` [PYRILAMINE], the IC50 result was “Not Active” in data set [2]; “Not Active” in data set [3]; “Not Active” in data set [4]; 2.98 µM in [5] (read-out: IC50); “Not Active” in [6]; “Not Active” in data set [7]. Further, the IC50 result in data set [8], in data set [9], in [13], in [10], in data set [11] and in data set [14] was “Not Active” throughout. Moreover, the IC50 result in data set [12] (hela) was “Not Active”. Moreover, the inhibition constant (Ki) result in data set [2] is “Not Active”; in data set [4], “Not Active”; in data set [5] (read-out: Ki) it was 1.12 µM; in data set [11], “Not Active”; in data set [14], “Not Active”.
